Measurements as given in patent US9527834B2, “Substituted 1-benzylquinoxalin-2(1H)-one analogs as positive allosteric modulators of muscarinic acetylcholine receptor M1” (Vanderbilt University, priority 2013, dated 2016).

Biological target: T1, mAChR M1 (Homo sapiens, UniProt P11229)
T1 construct: expressed in transfected cells; host or cells: CHO-K1
T1 sequence (P11229 1-460): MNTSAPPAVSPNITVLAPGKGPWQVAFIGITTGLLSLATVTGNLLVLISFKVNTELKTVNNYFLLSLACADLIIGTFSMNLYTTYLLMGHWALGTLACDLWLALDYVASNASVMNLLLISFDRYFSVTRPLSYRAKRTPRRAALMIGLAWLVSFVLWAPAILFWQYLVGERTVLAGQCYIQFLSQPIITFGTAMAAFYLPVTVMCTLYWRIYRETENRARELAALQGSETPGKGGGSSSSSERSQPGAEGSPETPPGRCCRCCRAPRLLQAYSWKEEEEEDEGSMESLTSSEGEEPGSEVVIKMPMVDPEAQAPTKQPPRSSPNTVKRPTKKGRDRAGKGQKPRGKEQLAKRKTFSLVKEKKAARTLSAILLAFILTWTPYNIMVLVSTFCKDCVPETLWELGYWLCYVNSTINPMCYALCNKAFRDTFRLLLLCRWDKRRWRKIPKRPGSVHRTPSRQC
Test: mAChR M1 cell-based functional assay (calcium mobilization, potentiation of EC20 acetylcholine response)
Settings: mAChR M1-expressing CHO-K1 cells; calcium flux; >10 μM estimated for low potency (no plateau) with >20% increase in ACh response
From the text: Chinese hamster ovary (CHO-K1) cells stably expressing rat (r)M1 were purchased from the American Type Culture Collection and cultured according to their indicated protocol. CHO cells stably expressing human (h)M2, hM3, and hM5 were described previously (Levey, A. I., et al., J Neurosci. 1991, 11, 3218-3226.); hM1 and hM4 cDNAs were purchased from Missouri S&T cDNA Resource; rM4 cDNA was provided by T. I. Bonner (National Institutes of Health, Bethesda, Md.). rM2 and rM3 were cloned from a rat brain cDNA library and sequence verified. hM1, rM2, rM3, hM4, and rM4 cDNAs were used to stably transfect CHO-K1 cells purchased from the American Type Culture Collection using Lipofectamine2000. […]
Calcium flux was measured using the Functional Drug Screening System (FDSS) 6000 (Hamamatsu Corporation, Tokyo, Japan) as an increase in the fluorescent static ratio. […] Agonist activity was analyzed as a concentration-dependent increase in calcium mobilization upon compound addition. Positive allosteric modulator activity was analyzed as a concentration-dependent increase in the EC20 acetylcholine response. Antagonist activity was analyzed as a concentration-dependent decrease in the EC80 acetylcholine response. […]

Compound	EC50 [µM]
Cn1cc2c(-c3cc(F)c(Cn4c(=O)cnc5ccccc54)c(F)c3)cccc2n1 [Compound B1, 1-(2,6-difluoro-4-(2-methyl-2H-indazol-4-yl)benzyl)quinoxalin-2(1H)-one]	3.45
Cn1cc(-c2ccc(Cn3c(=O)cnc4ccccc43)cc2)cn1 [Compound B2]	> 10
